Measured values: the NIST ThermoML archive (doi:10.1021/je100313a)

Assay: xn = mol fraction of the nth substance listed
Conditions: 101 kPa, Liquid

C1C[C@@H]2[C@H]3CC[C@H](C3)[C@@H]2C1 [exo-tetrahydrodicyclopentadiene] + CCCCCCCCCCC
Conditions | mass density, 293.15 K [kg/m3] | mass density, 298.15 K [kg/m3] | mass density, 303.15 K [kg/m3] | mass density, 313.15 K [kg/m3] | viscosity, 293.15 K [mPa·s] | viscosity, 298.15 K [mPa·s] | viscosity, 303.15 K [mPa·s] | viscosity, 313.15 K [mPa·s]
x2 = 0 | 935.3 | 931.4 | 927.5 | 919.6 | 3.076 | 2.784 | 2.525 | 2.112
x2 = 0.0881 | 911.7 | 907.8 | 903.9 | 896.1 | 2.697 | 2.439 | 2.228 | 1.856
x2 = 0.1777 | 889.3 | 885.4 | 881.6 | 873.8 | 2.39 | 2.162 | 1.982 | 1.662
x2 = 0.2711 | 867.6 | 863.7 | 859.9 | 852.1 | 2.135 | 1.937 | 1.78 | 1.499
x2 = 0.3669 | 846.8 | 843 | 839.2 | 831.5 | 1.921 | 1.751 | 1.615 | 1.362
x2 = 0.4654 | 827 | 823.1 | 819.3 | 811.7 | 1.747 | 1.594 | 1.47 | 1.246
x2 = 0.5658 | 808.2 | 804.4 | 800.6 | 793 | 1.608 | 1.47 | 1.359 | 1.158
x2 = 0.6685 | 790.3 | 786.6 | 782.8 | 775.2 | 1.483 | 1.358 | 1.256 | 1.074
x2 = 0.778 | 772.6 | 768.9 | 765.2 | 757.7 | 1.373 | 1.259 | 1.167 | 1
x2 = 0.8855 | 756.5 | 752.7 | 749 | 741.6 | 1.284 | 1.177 | 1.093 | 0.941
